A word on the koff: it is the rate constant with which the complex falls apart. A low value points to slow dissociation. What is called kon is the second-order rate constant of association. A lower kon goes with slow association.

4 molecules from publication PMC8399565, “Fluorescence Cross-Correlation Spectroscopy Yields True Affinity and Binding Kinetics of Plasmodium Lactate Transport Inhibitors” (Pharmaceuticals, 2021) can be followed below.

For one test, the target named is T1, PfFNT G107S-GFP (Plasmodium falciparum, UniProt O77389, G107S).
T1 construct: The DNA of full-length PfFNT from Plasmodium falciparum 3D7 was cloned as a C-terminal GFP fusion; expressed in transfected cells; intact cells for imaging, LMNG-solubilized membranes for FCCS
T1 sequence (O77389 whole entry G107S, the tested form may be a part): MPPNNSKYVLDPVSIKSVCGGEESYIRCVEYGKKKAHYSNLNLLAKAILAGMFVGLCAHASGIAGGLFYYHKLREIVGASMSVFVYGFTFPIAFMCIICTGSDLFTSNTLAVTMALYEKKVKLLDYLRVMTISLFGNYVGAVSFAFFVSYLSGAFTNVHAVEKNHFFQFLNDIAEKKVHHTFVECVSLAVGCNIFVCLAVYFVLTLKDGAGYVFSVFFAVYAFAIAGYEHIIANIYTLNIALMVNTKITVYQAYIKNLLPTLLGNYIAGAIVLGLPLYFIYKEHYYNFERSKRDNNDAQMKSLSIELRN
Nature of the test: FCCS equilibrium saturation binding to solubilized PfFNT G107S mutant. As for the experimental part: Next, we determined inhibitor binding affinities for both PfFNT and its G107S mutant. Solubilized cell membranes containing PfFNT-GFP at a concentration of 10 nM were incubated for 1 h at ambient temperature with increasing concentrations of labeled inhibitor molecules to obtain saturation binding curves and to calculate the dissociation constant (KD) of the interactions. Equilibrium binding experiments were pipetted in biological triplicates and carried out and analyzed as described in Antoine et al..
We next performed equilibrium saturation binding assays to assess the binding of both tracers to the mutant PfFNT G107S.
A cell pellet was resuspended in 1 mL of ice-cold TBS (50 mM Tris-HCl (pH 7.4) and 150 mM NaCl) supplemented with cOmplete™ Protease Inhibitor Cocktail (cat. no 11697498001, Roche, Switzerland) and broken by sonication on ice, using an Ultrasonic homogenizer SONOPULS HD 2070 (Bandelin, Germany). Cell debris was removed by centrifugation for 5 min at 1100× g at 4 °C, and membranes were harvested from the cleared lysate by subsequent centrifugation at 21,000× g. The resulting pellet containing cellular membranes was lysed using a Dounce homogenizer. The receptor was solubilized by incubation in 1% LMNG (cat. no NG310, Anatrace, USA) or in another detergent (DDM, DM, CHAPS, CHS, LDAO) when conducting tests to determine the best solubilization conditions. The insolubilized membrane material was removed by centrifugation for 1 h at 21,000× g at 4 °C, and the supernatant was collected and directly subjected to FCCS analysis or stored at −80 °C.
(§1) FCCS measurements were conducted in 384-well glass-bottom plates (cat. no PS96B-G175, SWISSCI, Switzerland) using an Insight plate reader (Evotec Technologies, Germany) fitted with a U-Apo300 40x water immersion lens, NA 1.15 (Olympus, Japan). The 488 nm laser line of an argon-ion laser and the light of a 633 nm helium–neon laser were used for excitation. Fluorescence fluctuations were recorded for 8 s with 12 repetitions and analyzed afterward using FCS+plus Analyze 1.1P (Evotec technologies, Version 1.2.5g). FCCS analysis was carried out as described previously. Briefly, for measuring the dissociation constant (KD), a titration series of 12 dilutions was prepared, where the concentration of the lysates obtained from HEK cells expressing GFP-fusions of PfFNT WT and G107S was kept constant, and the concentration of the labeled binding partner (BH296-DY647 and BH267.meta-DY647, respectively) was varied. The IC50 values were calculated by plotting the concentration from the dual labeled complex against the concentration of the competitor titrated over a concentration range from 10 µM to 10 pM. Samples were incubated for 1 h at room temperature prior to FCCS measurements to allow the formation of drug target complexes. From the resulting IC50 values, the Ki values were obtained by application of the Cheng Prusoff equation [17]. To assess the rate constants, time-resolved measurements were carried out at different concentrations of the labeled ligand. […] All KD and IC50 values, as well as kinetic parameters, were determined from three independently repeated experiments. The figures show one representative measurement; however, the calculated KD, Ki, kon and koff values are presented as an average of the three measurements ± SD. Error bars denote ± SEM.

For the next test, the target named is T2, PfFNT-GFP (Plasmodium falciparum, UniProt O77389).
T2 construct: The DNA of full-length PfFNT from Plasmodium falciparum 3D7 was cloned as a C-terminal GFP fusion; expressed in transfected cells; intact cells for imaging, LMNG-solubilized membranes or lysates for FCCS
T2 sequence (O77389 whole entry, the tested form may be a part): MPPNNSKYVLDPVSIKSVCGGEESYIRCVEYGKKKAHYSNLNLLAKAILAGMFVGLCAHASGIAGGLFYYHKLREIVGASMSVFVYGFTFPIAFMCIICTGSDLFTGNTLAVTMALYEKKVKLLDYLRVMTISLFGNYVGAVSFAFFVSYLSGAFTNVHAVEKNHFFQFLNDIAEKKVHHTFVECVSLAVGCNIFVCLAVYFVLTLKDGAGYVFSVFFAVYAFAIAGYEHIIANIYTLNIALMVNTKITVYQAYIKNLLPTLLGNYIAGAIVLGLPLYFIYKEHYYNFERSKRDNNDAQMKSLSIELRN
The experiment in a line: Live cell confocal imaging, co-localization with PfFNT-GFP in HEK293 cells. It counts as cell-based. To be noted: for co-localization / membrane localization: probe after 0.05% Triton X-100 permeabilization, 0.5-5 min. As for the experimental part: BH296-DY647 was added at a concentration of 50 nM to cultured HEK cells stably expressing PfFNT-GFP to test for co-localization of the compound with the target at the plasma membrane by confocal imaging. […] As the cytoplasmic domain of the transporter is inaccessible for the compound, we next explored possibilities to permeabilize the plasma membrane and to retain cell viability for the time of incubation. For this, we used Triton X-100 at a final concentration of 0.05%, as described previously to allow for diffusion of compounds into the cell. […] A prolonged incubation was impeded by incipient cell disintegration and membrane blebbing. We next set out to test the specificity of binding by analyzing the interaction of labeled BH296 with its unlabeled parental compound.
The confocal laser scanning microscopy was performed on an LSM 510 confocal microscope connected to an Axiovert 200M equipped with a C-Apochromat 40×/1.2 W water immersion objective (Carl Zeiss, Germany). The red fluorophore (Dy-647) was excited using a 633 nm helium–neon laser, whereas the green fluorophore (GFP) was excited using a 488 nm argon-ion laser.

The target in another test is T3, PfFNT wt-GFP (Plasmodium falciparum, UniProt O77389).
T3 construct: The DNA of full-length PfFNT from Plasmodium falciparum 3D7 was cloned as a C-terminal GFP fusion; expressed in transfected cells; intact cells for imaging, LMNG-solubilized membranes or lysates for FCCS
T3 sequence (O77389 whole entry, the tested form may be a part): as above
The experiment in a line: Time-resolved FCCS binding kinetics. The method, then: To complete our biophysical interaction analysis, we determined the rate constants of both labeled inhibitors to PfFNT wildtype. This is of relevance because inhibitors with similar affinities but different association and dissociation rates can show different activity profiles. […] For measuring the kinetics of direct interactions between PfFNT and the labeled inhibitor molecules, we applied the target at a concentration of 10 nM and chose ligand concentrations that exceeded the number of target molecules by […]. In this way, we ensured that throughout the course of the kinetic measurement, the depletion of free ligands remained insignificant. First, time resolved binding curves were recorded for ligand concentrations of 148, 133, 115, 100, 81, 76, 44, 25 nM (BH296) and 120, 102, 76, 74, 65, 58, 46, 32 nM (BH267.meta), respectively, to obtain kobs values (Figure 5). Then kon and koff values were calculated by linear regression. Both inhibitors bind and dissociate with equal rate constants (Table 3) and are characterized by a rapid association. Equilibrium is reached within less than 1 min at nanomolar inhibitor concentrations. To cross-validate the reliability of our kinetic determinations, we compared the KD values derived from saturation binding assays with affinities deduced from the kinetic rate constants by dividing koff by kon.
Figure 5 Kinetic studies of the fluorescent probes BH296-DY647 and BH267.meta-DY647 with PfFNT-GFP by FCCS. Time resolved measurements of the interactions were carried out to obtain kobs-values. The kobs-values were plotted versus concentrations of the fluorescent probe. The solid line represents the best linear regression, and kon and koff of both fluorescent probes were estimated from the slope and y-intercept, respectively. kon and koff values of BH296-DY647 and BH267.meta-DY647 are summarized in Table 3.
as §1

[1] abbreviates: fluorescent probe titrated against solubilized PfFNT G107S-GFP.

Entries after “also recorded” stand apart in the source; their conditions may differ. Read-outs that look alike come from different tables or passages of the source.

As to `CCN1/C(=C/C=C/C=C/C2=[N+](CC)c3ccc(S(=O)(=O)O)cc3C2(C)CCCC(=O)NCCOCCOCCOCCOCCC(=O)NCCCOc2ccc(C(=O)/C=C(\O)C(F)(F)C(F)(F)F)cn2)C(C)(C)c2cc(S(=O)(=O)[O-])ccc21` (stereo not shown) [BH267.meta-DY647], the Kd at PfFNT G107S-GFP worked out at 405 nM. Moreover, on PfFNT G107S-GFP (fraction of PfFNT G107S-GFP involved in binding at saturation), the “Active Receptor (%)” value is recorded as “n.d. 100%”. Besides, the “co-localization / membrane localization” value on PfFNT-GFP was “localizes with PfFNT wildtype”. At PfFNT wt-GFP, this molecule gave a Kd of 112 ± 5 nM, a koff of 0.0297 s⁻¹ and a kon of 268000 M⁻¹ s⁻¹.
As to `O=C(C=C(O)C(F)(F)C(F)(F)F)c1ccc(O)cc1` [BH296, 4,4,5,5,5-pentafluoro-3-hydroxy-1-(4-hydroxyphenyl)pent-2-en-1-one], the “KD (equilibrium saturation binding)” value on PfFNT G107S-GFP (setting [1]) is recorded as “failed to bind within detection limits”. For the same molecule, the “competition of labeled tracer binding by unlabeled compound” value on PfFNT-GFP (preincubation with 100 µM unlabeled compound, tracer BH296-DY647) is reported as “prevented binding of the labeled tracer; also recorded: completely abrogated binding”. On PfFNT wt-GFP, this molecule had a Kd of 113 nM.
For `CCN1/C(=C/C=C/C=C/C2=[N+](CC)c3ccc(S(=O)(=O)O)cc3C2(C)CCCC(=O)NCCOCCOCCOCCOCCC(=O)NCCCOc2ccc(C(=O)/C=C(\O)C(F)(F)C(F)(F)F)cc2)C(C)(C)c2cc(S(=O)(=O)[O-])ccc21` (stereo not shown) [BH296-DY647], the Kd on PfFNT G107S-GFP was > 2000 nM. Moreover, the “KD (equilibrium saturation binding)” value at PfFNT G107S-GFP (setting [1]) is reported as “no affinity above background”. The “co-localization / binding at plasma membrane” value on PfFNT-GFP (50 nM probe, absence of Triton X-100, up to 1 h) is “No co-localization; also recorded: could not be observed”. In addition, at PfFNT-GFP, the “co-localization / membrane localization” value is “clearly visible”. On PfFNT wt-GFP, this molecule had a Kd of 113 ± 2 nM, a dissociation rate constant (koff) of 0.0311 s⁻¹ and a kon of 278000 M⁻¹ s⁻¹.
On to `O=C(/C=C(\O)C(F)(F)C(F)(F)F)c1cccnc1` [BH267.meta], for which the Kd turned out to be 405 nM on PfFNT G107S-GFP (fluorescent probe titrated against solubilized PfFNT G107S-GFP, read-out: KD (equilibrium saturation binding)) and 112 nM at PfFNT wt-GFP (koff divided by kon, read-out: KD (Kinetics)). Besides, the “co-localization / membrane localization” value at PfFNT-GFP is given as “binds efficiently”.
